Measured values published in article PMC10412597, “Small molecule branched-chain ketoacid dehydrogenase kinase (BDK) inhibitors with opposing effects on BDK protein levels” (Nature Communications, 2023).

Legend:
Androgen Receptor = biological target: T1, Androgen Receptor (Homo sapiens, UniProt P10275); design: Cerep Bioprint off-target panel, ligand binding inhibition; conditions: binder
T1 construct: gene AR
Protocol: (§1) To discover a potent and selective BDK inhibitor, a subset of the Pfizer compound collection was screened. […] Off target activity was assessed in both CEREP and kinase panels (Supplementary Tables 2, 3).

Dopamine Transporter = biological target: T2, Dopamine Transporter (Homo sapiens, UniProt Q01959); design: Cerep Bioprint off-target panel, ligand binding inhibition; conditions: binder
T2 construct: gene SLC6A3
T2 sequence (Q01959 whole entry): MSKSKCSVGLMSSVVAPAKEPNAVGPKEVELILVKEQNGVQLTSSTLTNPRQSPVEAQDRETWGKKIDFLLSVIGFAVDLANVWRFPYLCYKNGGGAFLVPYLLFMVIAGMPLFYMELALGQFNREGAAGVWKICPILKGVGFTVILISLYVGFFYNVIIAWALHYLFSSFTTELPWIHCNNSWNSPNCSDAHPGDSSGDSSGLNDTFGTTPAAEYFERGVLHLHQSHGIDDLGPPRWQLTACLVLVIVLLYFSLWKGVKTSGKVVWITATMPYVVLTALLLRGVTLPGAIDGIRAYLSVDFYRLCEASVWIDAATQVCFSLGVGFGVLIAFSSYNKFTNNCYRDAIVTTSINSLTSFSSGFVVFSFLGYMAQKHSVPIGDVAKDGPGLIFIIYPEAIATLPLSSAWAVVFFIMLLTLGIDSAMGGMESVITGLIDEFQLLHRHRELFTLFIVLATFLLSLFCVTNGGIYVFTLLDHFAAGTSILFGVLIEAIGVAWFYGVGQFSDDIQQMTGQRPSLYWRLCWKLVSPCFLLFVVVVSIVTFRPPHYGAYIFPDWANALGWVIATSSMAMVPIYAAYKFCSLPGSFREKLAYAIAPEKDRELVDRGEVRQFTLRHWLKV
Protocol: as §1

GABAa1 Receptor = biological target: T3, GABAa1 Receptor (Homo sapiens, UniProt P14867+P18507+P47870); design: Cerep Bioprint off-target panel, ligand binding inhibition; conditions: binder
T3 construct: gene GABRA1; alpha1
Protocol: as §1

Glucocorticoid Receptor = biological target: T4, Glucocorticoid Receptor (Homo sapiens, UniProt P04150); design: Cerep Bioprint off-target panel, ligand binding inhibition; conditions: binder
T4 construct: gene NR3C1
T4 sequence (P04150 whole entry): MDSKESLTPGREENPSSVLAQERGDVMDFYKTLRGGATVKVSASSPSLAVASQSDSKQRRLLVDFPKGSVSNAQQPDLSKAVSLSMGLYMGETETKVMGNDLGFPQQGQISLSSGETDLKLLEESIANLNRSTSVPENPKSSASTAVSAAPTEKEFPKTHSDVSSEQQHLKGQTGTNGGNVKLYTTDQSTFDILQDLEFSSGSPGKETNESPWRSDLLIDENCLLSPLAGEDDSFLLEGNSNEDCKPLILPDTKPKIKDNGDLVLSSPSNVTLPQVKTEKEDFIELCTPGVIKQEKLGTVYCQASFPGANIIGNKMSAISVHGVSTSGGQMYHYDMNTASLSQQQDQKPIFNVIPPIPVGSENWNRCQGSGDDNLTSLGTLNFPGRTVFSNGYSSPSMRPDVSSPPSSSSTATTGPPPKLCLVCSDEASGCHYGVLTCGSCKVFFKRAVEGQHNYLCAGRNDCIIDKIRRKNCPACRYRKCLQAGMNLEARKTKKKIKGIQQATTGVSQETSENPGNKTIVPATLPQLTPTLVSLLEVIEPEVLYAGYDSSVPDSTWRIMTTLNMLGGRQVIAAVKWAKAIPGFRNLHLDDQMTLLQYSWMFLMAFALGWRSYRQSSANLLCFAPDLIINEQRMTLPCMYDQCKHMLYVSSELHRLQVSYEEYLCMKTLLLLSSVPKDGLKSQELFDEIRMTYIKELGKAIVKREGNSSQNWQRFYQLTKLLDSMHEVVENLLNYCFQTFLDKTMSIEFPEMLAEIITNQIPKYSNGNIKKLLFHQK
Protocol: as §1

[1] = biological target: T5, Nicotinic Acetylcholine Receptor (alpha4, beta2 subunit containing) (Homo sapiens, UniProt P17787+P43681); design: Cerep Bioprint off-target panel, ligand binding inhibition; conditions: binder
T5 construct: gene CHRNB2
T5 sequence (P17787 whole entry): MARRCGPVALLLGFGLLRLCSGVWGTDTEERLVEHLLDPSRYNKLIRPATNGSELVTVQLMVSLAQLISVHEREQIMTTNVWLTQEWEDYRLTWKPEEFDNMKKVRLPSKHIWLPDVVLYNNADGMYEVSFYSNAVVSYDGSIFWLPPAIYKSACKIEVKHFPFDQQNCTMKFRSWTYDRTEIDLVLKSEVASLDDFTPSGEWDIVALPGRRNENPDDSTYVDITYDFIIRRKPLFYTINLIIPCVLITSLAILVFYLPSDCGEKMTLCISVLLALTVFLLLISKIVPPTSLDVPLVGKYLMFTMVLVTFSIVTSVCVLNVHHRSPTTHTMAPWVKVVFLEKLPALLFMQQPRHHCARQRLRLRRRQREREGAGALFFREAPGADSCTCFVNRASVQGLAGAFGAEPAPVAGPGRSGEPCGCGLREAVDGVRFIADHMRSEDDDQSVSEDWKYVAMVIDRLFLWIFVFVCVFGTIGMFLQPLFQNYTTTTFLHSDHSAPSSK
T5 sequence (P43681 whole entry): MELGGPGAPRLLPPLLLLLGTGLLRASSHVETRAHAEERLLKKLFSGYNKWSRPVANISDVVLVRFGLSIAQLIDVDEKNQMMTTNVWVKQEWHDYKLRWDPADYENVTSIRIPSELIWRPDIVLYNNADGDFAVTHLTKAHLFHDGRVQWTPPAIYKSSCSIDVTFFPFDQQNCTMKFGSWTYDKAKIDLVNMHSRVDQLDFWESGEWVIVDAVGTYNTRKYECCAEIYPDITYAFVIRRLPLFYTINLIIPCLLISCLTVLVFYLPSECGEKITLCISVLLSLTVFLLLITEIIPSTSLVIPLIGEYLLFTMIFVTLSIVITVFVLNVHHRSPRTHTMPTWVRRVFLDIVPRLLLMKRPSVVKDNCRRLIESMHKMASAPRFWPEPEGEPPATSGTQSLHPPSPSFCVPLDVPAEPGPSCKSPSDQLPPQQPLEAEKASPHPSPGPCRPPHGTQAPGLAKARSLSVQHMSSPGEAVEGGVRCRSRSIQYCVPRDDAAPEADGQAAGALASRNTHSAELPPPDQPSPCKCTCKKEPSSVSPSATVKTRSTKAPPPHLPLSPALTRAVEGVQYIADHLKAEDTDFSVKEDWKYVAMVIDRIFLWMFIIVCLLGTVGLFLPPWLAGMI
Protocol: as §1

[2] = biological target: T6, Norepinephrine Transporter (Homo sapiens, UniProt P23975); design: Cerep Bioprint off-target panel, ligand binding inhibition; conditions: binder
T6 construct: gene SLC6A2
Protocol: as §1

PPAR-gamma = biological target: T7, PPAR-gamma (Homo sapiens, UniProt P37231); design: Cerep Bioprint off-target panel, ligand binding inhibition; conditions: binder
T7 construct: gene PPARG
T7 sequence (P37231 1-505): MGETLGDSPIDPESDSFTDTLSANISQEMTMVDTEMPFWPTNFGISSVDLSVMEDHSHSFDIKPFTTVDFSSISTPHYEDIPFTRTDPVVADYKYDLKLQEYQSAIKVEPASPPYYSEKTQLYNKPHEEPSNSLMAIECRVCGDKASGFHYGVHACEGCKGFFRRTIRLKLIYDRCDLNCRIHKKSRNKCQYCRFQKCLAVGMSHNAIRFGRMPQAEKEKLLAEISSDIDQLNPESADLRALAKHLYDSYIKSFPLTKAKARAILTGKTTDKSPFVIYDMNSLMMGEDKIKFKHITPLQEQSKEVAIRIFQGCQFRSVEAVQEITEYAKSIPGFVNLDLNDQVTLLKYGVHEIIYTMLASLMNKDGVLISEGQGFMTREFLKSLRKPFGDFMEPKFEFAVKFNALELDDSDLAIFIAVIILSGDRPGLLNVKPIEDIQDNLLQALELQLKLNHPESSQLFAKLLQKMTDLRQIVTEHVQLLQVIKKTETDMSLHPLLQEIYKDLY
Protocol: as §1

Serotonin 5-HT3 = biological target: T8, Serotonin 5-HT3 (Homo sapiens, UniProt P46098); design: Cerep Bioprint off-target panel, ligand binding inhibition; conditions: binder
T8 construct: gene HTR3A
T8 sequence (P46098 whole entry): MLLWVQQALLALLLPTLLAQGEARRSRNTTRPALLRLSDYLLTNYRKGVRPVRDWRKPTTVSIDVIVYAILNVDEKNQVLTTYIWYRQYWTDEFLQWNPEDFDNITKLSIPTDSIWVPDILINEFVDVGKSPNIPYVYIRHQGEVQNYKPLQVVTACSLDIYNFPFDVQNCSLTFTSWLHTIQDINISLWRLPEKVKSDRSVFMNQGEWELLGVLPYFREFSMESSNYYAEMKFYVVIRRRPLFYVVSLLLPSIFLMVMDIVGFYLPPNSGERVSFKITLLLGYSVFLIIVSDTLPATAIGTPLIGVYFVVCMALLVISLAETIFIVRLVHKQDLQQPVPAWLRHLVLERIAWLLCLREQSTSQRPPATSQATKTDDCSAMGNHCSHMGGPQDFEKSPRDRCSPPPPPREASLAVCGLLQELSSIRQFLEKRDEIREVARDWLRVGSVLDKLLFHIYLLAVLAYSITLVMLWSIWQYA
Protocol: as §1

Serotonin Transporter = biological target: T9, Serotonin Transporter (Homo sapiens, UniProt P31645); design: Cerep Bioprint off-target panel, ligand binding inhibition; conditions: binder
T9 construct: gene SLC6A4
T9 sequence (P31645 whole entry): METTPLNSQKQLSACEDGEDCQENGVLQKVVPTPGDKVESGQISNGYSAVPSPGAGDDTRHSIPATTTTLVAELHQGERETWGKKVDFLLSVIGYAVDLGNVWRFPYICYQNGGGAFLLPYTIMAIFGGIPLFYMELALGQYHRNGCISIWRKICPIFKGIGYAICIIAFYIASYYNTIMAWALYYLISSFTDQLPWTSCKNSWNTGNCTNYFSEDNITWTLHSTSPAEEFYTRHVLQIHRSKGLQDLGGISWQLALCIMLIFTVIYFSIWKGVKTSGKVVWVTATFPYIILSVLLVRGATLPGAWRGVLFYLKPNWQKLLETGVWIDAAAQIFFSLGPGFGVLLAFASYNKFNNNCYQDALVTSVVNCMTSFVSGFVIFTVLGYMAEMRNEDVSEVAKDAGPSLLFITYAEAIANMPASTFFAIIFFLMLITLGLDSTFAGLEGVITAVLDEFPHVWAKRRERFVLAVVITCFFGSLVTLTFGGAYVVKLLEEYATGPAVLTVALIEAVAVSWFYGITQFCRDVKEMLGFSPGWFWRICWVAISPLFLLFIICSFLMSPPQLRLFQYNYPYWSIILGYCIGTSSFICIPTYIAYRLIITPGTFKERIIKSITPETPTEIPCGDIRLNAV
Protocol: as §1

Kdr Kinase (VEGFR2) = Kdr Kinase (VEGFR2) (Homo sapiens, UniProt P35968); assay: biochemical; design: Cerep Bioprint off-target panel, enzyme or kinase inhibition
Protocol: as §1

Cannabinoid CB1 = biological target: T10, Cannabinoid CB1 (Homo sapiens, UniProt P21554); assay: cell-based; design: Cerep Bioprint off-target panel, functional receptor agonism or antagonism
T10 construct: gene CNR1
T10 sequence (P21554 whole entry): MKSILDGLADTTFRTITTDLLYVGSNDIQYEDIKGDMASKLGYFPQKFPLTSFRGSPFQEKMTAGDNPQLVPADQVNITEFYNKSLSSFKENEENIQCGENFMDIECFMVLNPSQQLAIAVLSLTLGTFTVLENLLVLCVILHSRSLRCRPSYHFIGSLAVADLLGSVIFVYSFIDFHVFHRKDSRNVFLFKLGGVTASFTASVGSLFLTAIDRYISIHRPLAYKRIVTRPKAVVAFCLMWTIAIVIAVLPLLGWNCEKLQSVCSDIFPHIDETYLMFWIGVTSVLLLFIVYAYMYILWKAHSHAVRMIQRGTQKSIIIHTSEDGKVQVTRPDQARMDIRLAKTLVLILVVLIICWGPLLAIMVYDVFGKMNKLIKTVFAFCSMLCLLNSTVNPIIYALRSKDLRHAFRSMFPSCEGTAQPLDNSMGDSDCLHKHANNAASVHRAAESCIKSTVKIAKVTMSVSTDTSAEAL
Protocol: as §1

T1 sequence (P10275 whole entry): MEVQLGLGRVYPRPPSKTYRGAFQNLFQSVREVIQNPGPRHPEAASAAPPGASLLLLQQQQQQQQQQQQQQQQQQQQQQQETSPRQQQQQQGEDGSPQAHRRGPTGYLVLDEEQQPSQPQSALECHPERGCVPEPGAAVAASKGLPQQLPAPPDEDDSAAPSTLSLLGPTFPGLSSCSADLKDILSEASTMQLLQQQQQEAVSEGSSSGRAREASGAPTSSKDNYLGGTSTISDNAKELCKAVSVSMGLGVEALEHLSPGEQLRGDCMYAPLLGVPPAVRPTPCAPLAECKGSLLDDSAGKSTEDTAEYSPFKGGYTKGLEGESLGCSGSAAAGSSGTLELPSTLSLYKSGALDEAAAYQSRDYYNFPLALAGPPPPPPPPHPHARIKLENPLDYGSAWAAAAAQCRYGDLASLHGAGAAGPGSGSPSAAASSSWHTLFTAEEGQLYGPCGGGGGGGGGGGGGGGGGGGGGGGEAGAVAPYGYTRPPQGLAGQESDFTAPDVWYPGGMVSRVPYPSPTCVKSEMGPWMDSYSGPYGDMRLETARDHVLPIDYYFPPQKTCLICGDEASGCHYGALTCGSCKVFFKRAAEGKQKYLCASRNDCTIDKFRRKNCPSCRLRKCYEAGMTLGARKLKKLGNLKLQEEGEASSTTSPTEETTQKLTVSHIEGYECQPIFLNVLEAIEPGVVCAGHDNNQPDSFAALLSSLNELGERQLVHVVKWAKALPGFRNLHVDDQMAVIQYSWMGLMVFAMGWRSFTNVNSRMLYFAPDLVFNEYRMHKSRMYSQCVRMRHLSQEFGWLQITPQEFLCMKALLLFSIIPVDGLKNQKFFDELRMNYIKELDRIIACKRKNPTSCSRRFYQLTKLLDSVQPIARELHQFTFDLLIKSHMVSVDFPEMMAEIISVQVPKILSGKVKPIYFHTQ

| Structure (SMILES) | % Inhibition (binding) PF-07247685 (Androgen Receptor; 10 µM) | % Inhibition (binding) PF-07247685 (Dopamine Transporter; 10 µM) | % Inhibition (binding) PF-07247685 (GABAa1 Receptor; 10 µM) | % Inhibition (binding) PF-07247685 (Glucocorticoid Receptor; 10 µM) | % Inhibition (binding) PF-07247685 ([1]; 10 µM) | % Inhibition (binding) PF-07247685 ([2]; 10 µM) | % Inhibition (binding) PF-07247685 (PPAR-gamma; 10 µM) | % Inhibition (binding) PF-07247685 (Serotonin 5-HT3; 10 µM) | % Inhibition (binding) PF-07247685 (Serotonin Transporter; 10 µM) | % Inhibition (binding) PF-07208254 (Androgen Receptor; 100 µM) | % Inhibition (binding) PF-07208254 (Dopamine Transporter; 100 µM) | % Inhibition (binding) PF-07208254 (GABAa1 Receptor; 100 µM) | % Inhibition (binding) PF-07208254 (Glucocorticoid Receptor; 100 µM) | % Inhibition (binding) PF-07208254 ([1]; 100 µM) | % Inhibition (binding) PF-07208254 ([2]; 100 µM) | % Inhibition (binding) PF-07208254 (PPAR-gamma; 100 µM) | % Inhibition (binding) PF-07208254 (Serotonin 5-HT3; 100 µM) | % Inhibition (binding) PF-07208254 (Serotonin Transporter; 100 µM) | IC50 (Kdr Kinase (VEGFR2)) | EC50 (Cannabinoid CB1) |
| --- | --- | --- | --- | --- | --- | --- | --- | --- | --- | --- | --- | --- | --- | --- | --- | --- | --- | --- | --- | --- |
| CCC1(COc2ccc(-c3csc(-c4ccccc4C(=O)O)n3)cn2)CC1 [PF-07247685, 2-(4-{6-[(1-ethylcyclopropyl)methoxy]pyridin-3-yl}-1,3-thiazol-2-yl)benzoic acid] | -8% | -1% | -21% | 0% | -4% | 6% | 21% | 0% | 2% |  |  |  |  |  |  |  |  |  |  |  |
| O=C(O)c1sc2cc(F)sc2c1Cl [PF-07208254, 3-chloro-5-fluorothieno[3,2-b]thiophene-2-carboxylic acid] |  |  |  |  |  |  |  |  |  | -4% | 7% | -12% | 4% | -6% | -15% | 62% | -14% | -3% | 76 µM | 180 µM |
